Biological target: T1, sweet taste receptor (T1R2, T1R3 endogenous) (Homo sapiens, UniProt Q7RTX0+Q8TE23)
T1 construct: endogenous in cells; host or cells: HuTu (ATCC HTB-40), H716 (ATCC CCL-251), HEK 293T (ATCC CRL-11268); some with prior UV treatment
T1 sequence (Q8TE23 20-839): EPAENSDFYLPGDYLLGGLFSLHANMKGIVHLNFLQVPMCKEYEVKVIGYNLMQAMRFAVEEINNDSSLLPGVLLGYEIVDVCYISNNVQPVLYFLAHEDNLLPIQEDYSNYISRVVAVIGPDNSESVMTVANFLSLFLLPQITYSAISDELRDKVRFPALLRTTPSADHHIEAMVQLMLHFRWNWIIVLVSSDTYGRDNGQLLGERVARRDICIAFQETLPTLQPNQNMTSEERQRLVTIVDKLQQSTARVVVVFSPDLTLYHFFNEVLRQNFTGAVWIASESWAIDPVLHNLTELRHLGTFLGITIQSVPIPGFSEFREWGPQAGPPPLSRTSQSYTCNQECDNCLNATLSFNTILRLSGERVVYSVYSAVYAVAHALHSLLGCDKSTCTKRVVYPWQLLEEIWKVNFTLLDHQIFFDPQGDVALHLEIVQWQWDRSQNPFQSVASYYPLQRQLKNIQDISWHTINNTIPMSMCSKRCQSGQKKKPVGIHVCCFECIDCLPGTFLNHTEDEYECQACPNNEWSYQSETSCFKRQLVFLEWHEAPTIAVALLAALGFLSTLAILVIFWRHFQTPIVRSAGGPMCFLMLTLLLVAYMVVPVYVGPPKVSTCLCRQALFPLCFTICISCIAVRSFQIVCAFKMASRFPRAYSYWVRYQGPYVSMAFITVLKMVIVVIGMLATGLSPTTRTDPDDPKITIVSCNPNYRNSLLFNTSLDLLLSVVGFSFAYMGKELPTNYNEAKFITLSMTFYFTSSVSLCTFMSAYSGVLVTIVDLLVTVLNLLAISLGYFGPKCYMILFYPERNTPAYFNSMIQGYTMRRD
T1 sequence (Q7RTX0 21-852): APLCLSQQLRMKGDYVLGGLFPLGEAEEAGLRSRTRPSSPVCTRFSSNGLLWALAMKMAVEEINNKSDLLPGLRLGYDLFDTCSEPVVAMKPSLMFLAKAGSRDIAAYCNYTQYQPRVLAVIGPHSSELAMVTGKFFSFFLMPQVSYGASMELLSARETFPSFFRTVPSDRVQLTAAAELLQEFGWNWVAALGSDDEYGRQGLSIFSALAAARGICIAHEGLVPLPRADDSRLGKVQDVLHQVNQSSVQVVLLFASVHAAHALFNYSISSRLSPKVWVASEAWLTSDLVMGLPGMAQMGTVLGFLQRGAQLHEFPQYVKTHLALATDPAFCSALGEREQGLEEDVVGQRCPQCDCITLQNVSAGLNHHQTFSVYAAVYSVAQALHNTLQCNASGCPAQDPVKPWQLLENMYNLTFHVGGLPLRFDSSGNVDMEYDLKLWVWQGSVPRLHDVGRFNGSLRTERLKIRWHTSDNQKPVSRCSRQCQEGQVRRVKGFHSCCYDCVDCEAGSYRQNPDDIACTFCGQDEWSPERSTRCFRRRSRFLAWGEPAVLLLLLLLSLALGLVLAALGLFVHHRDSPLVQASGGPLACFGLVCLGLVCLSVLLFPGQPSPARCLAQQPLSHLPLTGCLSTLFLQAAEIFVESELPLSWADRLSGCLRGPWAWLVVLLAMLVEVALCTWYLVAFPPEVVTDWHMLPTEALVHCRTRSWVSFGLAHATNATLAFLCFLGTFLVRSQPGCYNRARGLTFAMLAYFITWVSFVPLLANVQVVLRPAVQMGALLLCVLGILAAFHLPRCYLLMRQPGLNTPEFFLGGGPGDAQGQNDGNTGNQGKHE
Assay: Calcium flux assay, cells endogenously expressing at least one sweet receptor subunit
Assay type: cell-based
Conditions: 15 mM fructose
Experimental: Populations of cells each resulting from the expansion of single isolated cells then were characterized for their ability to respond to a sweet ligand using functional cell-based assays. 15 mM fructose was used in these experiments. Depending on the cell type, different conditions were used as described below.
Forty-eight hours prior to assay, cells were seeded in growth media (L15 media (Sigma #L5520) supplemented with 10% serum (Sigma #SAC1203C), 4 mM L-Glutamine (Sigma G7513), 10 mM HEPES (Sigma H0887), and a […] of penicillin/streptomycin solution (final concentration 100 units penicillin/100 μG streptomycin per mL) (Sigma # P4458) at a high density, from 12 to 20 million cells, in 10 cm dishes. Cells were dissociated from the culture matrix and were seeded at 35,000 cells per well 24 hours prior to assay in 384 well plates. Media was removed after 18 to 24 hours. A calcium-sensitive fluorescent dye (Fluo-4, Invitrogen) diluted in sweet assay buffer (130 mM NaCl, 1.1mMKH2PO4, 1.3 mM CaCl, 20 mM HEPES and 3mMNaHPO4*7H20) was added then to each well. Cells were incubated in this media for 1 hour. Plates then were loaded on a high throughput plate reader (Hamamatsu FDSS). […] Calcium flux or assay response was detected prior to, during and following addition of sweet assay buffer containing fructose to each well for a final concentration of 15 mM fructose. […]
Alternatively, cells were dissociated from the culture matrix and were seeded at cell densities from 2,500 to 20,000 per well for 24 or 48 hours prior to assay in Eagle's Minimal Essential Media (Sigma #D5650) containing 10% FBS (Sigma #2442), 2 mM L-Glutamine (Sigma #G7513) and 1 mM Sodium Pyruvate (Sigma #S8636) or a mixture of equal parts of this media and L-15 media (Sigma, L5520) in a 384 well plate. […] Plates then were loaded on a high throughput plate reader (Hamamatsu FDSS). […] Calcium flux or assay response was detected prior to, during and following addition of sweet assay buffer containing fructose to each well for a final concentration of 15 mM fructose. […]

Measured: response in calcium flux reporter assay

O=C(CO)[C@@H](O)[C@H](O)[C@H](O)CO [fructose]
responding to fructose: 293T cells, FIG. 28C | H716 cells, FIG. 28B | HuTu cells, FIG. 28A
